Like-named read-outs stand apart in the source and are kept apart here.
Tests used:
[1] = test system: MCF-10A mammary gland cells; assay: Bidimensional MCF-10A cell proliferation (MTT assay); format: cell-based, human; details: read-out: IC50, bidimensional MCF-10A cell growth
Protocol: (§1) For cellular proliferation with and without drugs, the cell lines (20 × 10^3 cells/well) were grown as bidimensional in 96-well plates containing Dulbecco’s Modified Eagle’s Medium (DMEM) (Sigma-Aldrich) for 24 h.

[2] = test system: OxPhos flux in HeLa cells; assay: OxPhos flux (oligomycin-sensitive oxygen consumption) in HeLa cells; format: cell-based, human; details: for OxPhos flux decrease: 5 µM celecoxib, 2 µM cisplatin, 15 µM paclitaxel, 24 h exposure; for OxPhos (mitochondrial flux) decrease, summary in Discussion: celecoxib or DMC alone, or combined with chemotherapy drugs
Protocol: For total oxygen consumption and OxPhos fluxes, HeLa, SiHa, or U373 cells or 3T3 fibroblasts (1 mg protein/mL), cultured for 24 h with the indicated drugs, were harvested and further incubated at 37 °C in air-saturated KR buffer and under constant agitation.

[3] = test system: HeLa cells; assay: Bidimensional HeLa cell proliferation (MTT assay), drugs alone or combined; format: cell-based, human; details: for IC50: read-out: IC50, bidimensional HeLa cell growth; for decrement of the IC50 value: bidimensional HeLa, presence of either NSAID (celecoxib or DMC) vs monotherapy
Protocol: as §1
(§2) The combination effect of NSAIDs and chemotherapy drugs on proliferation was also analyzed by determining the resistance index ratio (RI) and the combination index (CI) value.

[4] = test system: HeLa cells; assay: Cell invasiveness assay (Boyden chamber), HeLa; format: cell-based, human; details: celecoxib (5 µM), paclitaxel (15 µM), cisplatin (2 µM), alone or combined, 24 h
Protocol: The lower compartment was filled with serum-free DMEM. After 24 h at 37 °C, the invasive cells found in the lower compartment were loaded with 60 nM calcein AM (acetomethylester) for 60 min.

[5] = test system: glycolysis flux in HeLa cells; assay: Glycolytic flux (lactate production) in HeLa cells; format: cell-based, human; details: 5 µM celecoxib, 2 µM cisplatin, 15 µM paclitaxel, alone; 24 h exposure
Protocol: Glycolysis was started by adding 5 mM glucose (Sigma-Aldrich). Cellular samples were collected after 0 and 10 min of incubation, swiftly mixed with 30% (w/v) of cold perchloric acid, and centrifuged at 3500 rpm for 5 min. Supernatants were neutralized with 1N KOH/100 mM Tris. Cells were also incubated with 2-deoxyglucose (2-DG, 20 mM) (Sigma-Aldrich) to prevent lactate production by glycogen degradation. Lactate production was determined by the lactate dehydrogenase (Roche, Mannheim, Germany) coupled assay registering the NADH formation at 340 nm.

[6] = test system: HFF1 fibroblasts; assay: Bidimensional HFF1 fibroblast proliferation (MTT assay); format: cell-based; details: read-out: IC50, bidimensional HFF1 cell growth
Protocol: as §1

[7] = test system: 3T3 fibroblasts; assay: Bidimensional 3T3 fibroblast proliferation (MTT assay); format: cell-based, mouse; details: read-out: IC50, bidimensional 3T3 cell growth
Protocol: as §1, §2

[8] = test system: HeLa MCTS; assay: HeLa multi-cellular tumor spheroid (MCTS) growth, preventive and curative protocols; format: cell-based, human
Protocol: HeLa, SiHa, and U373 (1 × 10^5 cells/mL) were seeded onto 2% (w/v) agarose-coated culture dishes in 5 mL DMEM. […] The growth of each MCTS was analyzed by fitting data to a logistic function for exponential growth using the Origin 8 software (Northampton MA, USA).
as §2

[9] = test system: OxPhos flux in HeLa cells; details: vs. non-treated cells; cited from earlier work
[10] = test system: COX-2; details: at 100 µM; cited from earlier work
[11] = Homo sapiens, MCF-10A, drug alone, 24 h of drug exposure, non-cancer
[12] = Homo sapiens, HeLa, drug alone, 24 h of drug exposure
[13] = Homo sapiens, HFF-1, drug alone, 24 h of drug exposure, non-cancer
[14] = Mus musculus, NIH3T3, drug alone, 24 h of drug exposure, non-cancer
[15] = Homo sapiens, HeLa, 480 h, drug alone, added at the beginning of culture, determined at day 20 of growth, read-out: IC50, tridimensional HeLa MCTS, Preventive
[16] = Homo sapiens, HeLa, drug alone, added once spheroids were formed (day 10), determined at day 20 of growth, read-out: IC50, tridimensional HeLa MCTS, Curative
[17] = drug alone, 24 h of drug exposure
[18] = drug alone, added at the beginning of culture, determined at day 20 of growth, read-out: IC50, tridimensional HeLa MCTS, Preventive
[19] = drug alone, added once spheroids were formed (day 10), determined at day 20 of growth, read-out: IC50, tridimensional HeLa MCTS, Curative
[20] = drug alone, 24 h of drug exposure, non-cancer
[21] = Homo sapiens, HeLa, 480 h, read-out: IC50, tridimensional HeLa MCTS, Preventive
[22] = Homo sapiens, HeLa, read-out: IC50, tridimensional HeLa MCTS, Curative

Q: Which IC50 [1, 11] does the source give for CC(=O)O[C@H]1C(=O)[C@@]2(C)[C@H]([C@H](OC(=O)c3ccccc3)[C@]3(O)C[C@H](OC(=O)[C@H](O)[C@@H](NC(=O)c4ccccc4)c4ccccc4)C(C)=C1C3(C)C)[C@]1(OC(C)=O)CO[C@@H]1C[C@@H]2O [Paclitaxel] here?
A: Its IC50 is 100 ± 18 µM.

Q: And the OxPhos flux decrease ([2]; alone or in combination)?
A: The OxPhos flux decrease was “did not significantly affect”.

Q: And the IC50 [3, 12]?
A: Its IC50 is 21 ± 4 µM.

Q: And the “decrease of invasiveness potential” value [4]?
A: The value was “did not alter”.

Q: And the glycolysis decrease [5]?
A: Its glycolysis decrease is 40–60%.

Q: What about the IC50 [6, 13] of the same compound?
A: The IC50 was 68 ± 30 µM.

Q: What about the IC50 [7, 14] of the same compound?
A: Its IC50 is 80 ± 12 µM.

Q: And the IC50 [8, 15]?
A: Its IC50 is 0.016 ± 0.005 µM.

Q: What about the IC50 [8, 16] of the same compound?
A: Its IC50 is 26.5 ± 0.1 µM.

Q: Which results are given for COc1cccc2c1C(=O)c1c(O)c3c(c(O)c1C2=O)C[C@@](O)(C(=O)CO)C[C@@H]3O[C@H]1C[C@H](N)[C@H](O)[C@H](C)O1 [Doxorubicin, doxorubicin]?
A: IC50 [1, 11]: 82 ± 25 µM; IC50 [3, 12]: 26 ± 6 µM; decrement of the IC50 value [3]: 38–66%; IC50 [6, 13]: 65 ± 19 µM; IC50 [7, 14]: 51 ± 18 µM; IC50 [8, 15]: 0.048 ± 0.007 µM; IC50 [8, 16]: 86 ± 5 µM

Q: Which IC50 [3, 17] does the source give for “methoxy-tocopheryl oxyacetic acid [M-TEA]” here?
A: Its IC50 is 1.2 ± 0.48 µM.

Q: What does the source list for Cc1c(C)c2c(c(C)c1OC(=O)CCC(=O)O)CC[C@@](C)(CCC[C@H](C)CCC[C@H](C)CCCC(C)C)O2 [α-TOS, α-tocopheryl succinate]?
A: IC50 [3, 17]: 1.2 ± 0.46 µM; IC50 [8, 18]: 0.01 ± 0.004 µM; IC50 [8, 19]: 50 ± 11 µM

Q: Which IC50 [1, 20] does the source give for N.N.O=C([O-])C1(C(=O)[O-])CCC1.[Pt+2] [Carboplatin, carboplatin] here?
A: The IC50 was greater than 1000 µM.

Q: What about the “IC50, bidimensional HeLa cell growth” value [3, 17] of the same compound?
A: The value was “in the mM range”.

Q: What about the IC50 [3, 17] of the same compound?
A: Its IC50 is 1000 ± 400 µM.

Q: And the IC50 [7, 20]?
A: Its IC50 is greater than 5000 µM.

Q: And the IC50 [8, 18]?
A: The IC50 was 0.165 ± 0.028 µM.

Q: What about the IC50 [8, 19] of the same compound?
A: The IC50 was 287 ± 43 µM.

Q: Which IC50 [1, 20] does the source give for N.N.[Cl][Pt][Cl] [Cisplatin, cisplatin] here?
A: Its IC50 is 82 ± 4 µM.

Q: And the OxPhos flux decrease ([2]; alone or in combination)?
A: Its OxPhos flux decrease is “did not significantly affect”.

Q: And the “decrement of the IC50 value” [3]?
A: The value was 38–66%.

Q: And the IC50 [3, 17]?
A: The IC50 was 15 ± 3 µM.

Q: And the “decrease of invasiveness potential” value [4]?
A: The value was “did not alter”.

Q: What about the glycolysis decrease [5] of the same compound?
A: Its glycolysis decrease is 40–60%.

Q: And the IC50 [6, 20]?
A: The IC50 was 59 ± 26 µM.

Q: And the IC50 [8, 18]?
A: The IC50 was 0.05 ± 0.017 µM.

Q: What about the IC50 [8, 19] of the same compound?
A: Its IC50 is 270 ± 20 µM.

Q: For O=P1(N(CCCl)CCCl)NCCCO1 (stereo not shown) [Cyclophosphamide, cyclophosphamide], which IC50 ([1]; Homo sapiens, MCF-10A, 24 h) is on record?
A: Its IC50 is 102 ± 35 µM.

Q: What about the IC50 ([3]; Homo sapiens, HeLa, 24 h) of the same compound?
A: The IC50 was 16 ± 3 µM.

Q: What about the IC50 ([7]; Mus musculus, NIH3T3, 24 h) of the same compound?
A: Its IC50 is greater than 1000 µM.

Q: What about the IC50 [8, 21] of the same compound?
A: Its IC50 is 0.136 ± 0.087 µM.

Q: And the IC50 [8, 22]?
A: The IC50 was 315 ± 30 µM.

Q: What does the source list for Cc1ccc(-c2cc(C(F)(F)F)nn2-c2ccc(S(N)(=O)=O)cc2)cc1 [Celecoxib, celecoxib]?
A: IC50 [1, 11]: > 100 µM; OxPhos and mitochondrial membrane potential affected [9]: 50–80%; OxPhos flux decrease ([2]; alone or in combination): 36–50%; OxPhos (mitochondrial flux) decrease, summary in Discussion [2]: 50–60%; IC50 [3, 12]: 55 ± 9 µM; decrease of invasiveness potential [4]: did not alter; glycolysis decrease [5]: 36–50%; IC50 ([6]; Homo sapiens, HFF-1, 24 h): 96 ± 13 µM; IC50 ([7]; Mus musculus, NIH3T3, 24 h): 119 ± 7 µM; decrease of chemotherapy drug IC50 values ([8]; HeLa MCTS, both preventive and curative protocols): > 70%; IC50 [8, 21]: 0.001 ± 0.0003 µM; IC50 [8, 22]: 7.5 ± 2 µM

Q: Which IC50 [1, 11] does the source give for Cc1ccc(C)c(-c2cc(C(F)(F)F)nn2-c2ccc(S(N)(=O)=O)cc2)c1 [DMC, 2,5-dimethylcelecoxib] here?
A: The IC50 was greater than 100 µM.

Q: What about the inhibition at 15 µM ([2]; Homo sapiens, HeLa, DMC (15 µM), paclitaxel (20 µM), cisplatin (5 µM), alone or in combination, 24 h, n=1 (Figure S3)) of the same compound?
A: The inhibition at 15 µM was 60%.

Q: What about the “OxPhos (mitochondrial flux) decrease, summary in Discussion” value [2] of the same compound?
A: The value was 50–60%.

Q: And the IC50 [3, 12]?
A: The IC50 was 48 ± 2 µM.

Q: And the COX-2 activity blocked [10]?
A: The COX-2 activity blocked was 15%.

Q: What about the IC50 [6, 13] of the same compound?
A: Its IC50 is 44 ± 11 µM.

Q: And the IC50 [7, 14]?
A: Its IC50 is 69 ± 8.5 µM.

Q: And the “lowering of cisplatin and paclitaxel IC50 values” ([8]; HeLa MCTS curative protocol)?
A: Its value is 45–73%.

Q: What about the “lowering of cisplatin and paclitaxel IC50 values” ([8]; HeLa MCTS preventive protocol) of the same compound?
A: The value was 52–55%.

Q: What about the IC50 [8, 15] of the same compound?
A: The IC50 was 0.01 ± 0.002 µM.

Q: What about the IC50 [8, 16] of the same compound?
A: Its IC50 is 32 ± 10 µM.

Q: Which IC50 [1, 20] does the source give for Casiopeina II-gly [CasII-gly] here?
A: The IC50 was 17 ± 3 µM.

Q: What about the “decrease of IC50 values of cisplatin, paclitaxel, and doxorubicin” value ([3]; bidimensional HeLa cultures, co-added drug vs monotherapy) of the same compound?
A: Its value is 19–54%.

Q: What about the IC50 [3, 17] of the same compound?
A: The IC50 was 1.5 ± 0.9 µM.

Q: What about the IC50 [7, 20] of the same compound?
A: Its IC50 is 9 ± 2 µM.

Q: What about the “increase of cisplatin toxicity (decrease of cisplatin IC50)” value ([8]; HeLa MCTS) of the same compound?
A: Its value is 84–96%.

Q: What about the IC50 [8, 18] of the same compound?
A: The IC50 was 0.03 ± 0.0075 µM.

Q: And the IC50 [8, 19]?
A: Its IC50 is 106 ± 2 µM.

Q: What about the “decrease of IC50 values of cisplatin, paclitaxel, and doxorubicin” value ([8]; tridimensional HeLa cultures) of the same compound?
A: The value was 62–96%.

Q: For Cc1c(C)c2c(c(C)c1OCC(=O)O)CC[C@@](C)(CCC[C@H](C)CCC[C@H](C)CCCC(C)C)O2 [α-TEA, α-tocopherol ether linked acetic acid analog], which IC50 [3, 12] is on record?
A: Its IC50 is 4.7 ± 0.7 µM.

Q: What about the IC50 [8, 15] of the same compound?
A: Its IC50 is 0.025 ± 0.006 µM.

Q: And the IC50 [8, 16]?
A: The IC50 was 30 ± 2 µM.

Q: For Nc1ccn([C@@H]2O[C@H](CO)[C@@H](O)C2(F)F)c(=O)n1 [Gemcitabine, gemcitabine], which IC50 [1, 11] is on record?
A: Its IC50 is greater than 1000 µM.

Q: What about the IC50 [3, 12] of the same compound?
A: The IC50 was 30 ± 5 µM.

Q: What about the IC50 [7, 14] of the same compound?
A: The IC50 was greater than 2000 µM.

Q: What about the IC50 [8, 15] of the same compound?
A: The IC50 was 0.065 ± 0.017 µM.

Q: And the IC50 [8, 16]?
A: The IC50 was 128 ± 20 µM.

— article PMC7765098, “Non-Steroidal Anti-Inflammatory Drugs Increase Cisplatin, Paclitaxel, and Doxorubicin Efficacy against Human Cervix Cancer Cells” (Pharmaceuticals, 2020)
